Among the data in US12404295B2, “(Hetero)aryl-methyl-thio-beta-D-galactopyranoside derivatives” (Idorsia Pharmaceuticals Ltd, priority 2019, dated 2025) are IC50 values, retold here.

Read-outs that look alike come from different tables or passages of the source.

One test addresses human Gal-3 (hGal-3) (Homo sapiens (Human), UniProt P17931). As to the kind of experiment: competitive binding assay: biotinylated hGal-3 binding to microplate-adsorbed asialofetuin (ASF). The method in brief:
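Competition of compounds with biotinylated human Gal-3 for asialofetuin-coated plates, 3 hours at 4° C. Bound Gal-3 detected with streptavidin-peroxidase (80 ng/mL, 1 hour, 4° C) and ABTS substrate. IC50 reported as the mean of several measurements.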

For another test, the target named is human Gal-1 (hGal-1) (Homo sapiens (Human), UniProt P09382). The test can be described thus: competitive binding assay: biotinylated hGal-1 binding to microplate-adsorbed asialofetuin (ASF). The note with it: Table 15; read-out: IC50 (Galectin-1 inhibition). The method in brief:
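Biotinylated human Gal-1 (300-1000 ng/mL) competes with serially diluted compound for binding to ASF-coated plates, 3 h at 4° C. Bound protein detected with streptavidin-peroxidase and ABTS substrate (spectrophotometric). IC50 given as mean of several measurements.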

Setting [1] is: Gal-3 inhibition, binding of biotinylated hGal-3 to ASF, mean values, read-out: IC50.
Setting [2] is: Table 5, read-out: IC50 (Gal-3 inhibition).
The mark [3] stands for this setting: Table 10, 2-OMe-Gal inhibitors, read-out: IC50 (Gal-3 inhibition).

Chain of human Gal-3 (hGal-3) (P17931 whole entry): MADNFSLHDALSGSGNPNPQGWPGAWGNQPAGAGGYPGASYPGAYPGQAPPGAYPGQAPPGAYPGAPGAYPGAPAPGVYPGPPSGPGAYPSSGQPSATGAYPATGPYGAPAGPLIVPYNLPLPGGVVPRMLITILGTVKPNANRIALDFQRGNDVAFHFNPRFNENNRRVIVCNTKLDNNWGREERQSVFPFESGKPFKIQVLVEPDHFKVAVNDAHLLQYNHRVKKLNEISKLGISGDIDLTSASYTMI
Chain of human Gal-1 (hGal-1) (P09382 whole entry): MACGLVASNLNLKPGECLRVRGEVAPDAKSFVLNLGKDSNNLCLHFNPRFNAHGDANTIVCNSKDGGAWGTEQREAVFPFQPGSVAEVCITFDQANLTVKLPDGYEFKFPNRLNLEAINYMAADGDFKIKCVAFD

One may read the IC50 as the point on the concentration scale where inhibition reaches its midpoint. Take `Cc1cccnc1C(S[C@@H]1O[C@H](CO)[C@H](O)[C@H](n2cc(-c3cc(F)c(F)c(F)c3)nn2)[C@H]1O)C1(O)CCC(F)(F)CC1` (stereo partly drawn) [Example 2.44.126., (2S,3R,4S,5R,6R)-2-(((4,4-Difluoro-1-hydroxycyclohexyl)(3-methylpyridin-2-yl)methyl)thio)-6-(hydroxymethyl)-4-(4-(3,4,5-trifluorophenyl)-1H-1,2,3-triazol-1-yl)tetrahydro-2H-pyran-3,5-diol]: the IC50 at human Gal-3 (hGal-3) (setting [1]) and at human Gal-1 (hGal-1) was 60 nM throughout.
Turning to `OC[C@H]1O[C@@H](S[C@H](c2ccccc2C(F)(F)F)C2(O)CCC(F)(F)CC2)[C@H](O)[C@@H](n2cc(-c3cc(F)c(F)c(F)c3)nn2)[C@H]1O` [Example 2.44.112R., (2S,3R,4S,5R,6R)-2-(((R)-(4,4-Difluoro-1-hydroxycyclohexyl)(2-(trifluoromethyl)phenyl)methyl)thio)-6-(hydroxymethyl)-4-(4-(3,4,5-trifluorophenyl)-1H-1,2,3-triazol-1-yl)tetrahydro-2H-pyran-3,5-diol], the IC50 at human Gal-3 (hGal-3) (setting [2]) is 80 nM; on human Gal-1 (hGal-1) it was 770 nM.
The matching figures for `OC[C@H]1O[C@@H](SC(c2ccccc2C(F)(F)F)C2(O)CC(F)(F)C2)[C@H](O)[C@@H](n2cc(-c3cc(F)c(F)c(F)c3)nn2)[C@H]1O` (stereo partly drawn) [Example 2.33.112., (2S,3R,4S,5R,6R)-2-(((3,3-Difluoro-1-hydroxycyclobutyl)(2-(trifluoromethyl)phenyl)methyl)thio)-6-(hydroxymethyl)-4-(4-(3,4,5-trifluorophenyl)-1H-1,2,3-triazol-1-yl)tetrahydro-2H-pyran-3,5-diol]: 250 nM and 1800 nM.
For `CO[C@@H]1[C@@H](n2cc(-c3cc(F)c(F)c(F)c3)nn2)[C@@H](O)[C@@H](CO)O[C@H]1S[C@H](c1nocc1C)C1(O)CCCCC1` [Example 2.39.120R.I., (2R,3R,4S,5R,6S)-6-(((R)-(1-Hydroxycyclohexyl)(4-methylisoxazol-3-yl)methyl)thio)-2-(hydroxymethyl)-5-methoxy-4-(4-(3,4,5-trifluorophenyl)-1H-1,2,3-triazol-1-yl)tetrahydro-2H-pyran-3-ol], the IC50 was found to be 250 nM on human Gal-3 (hGal-3) (setting [3]) and 560 nM on human Gal-1 (hGal-1).
Taken in the same sequence, the figures for `CCc1c([C@@H](S[C@@H]2O[C@H](CO)[C@H](O)[C@H](n3cc(-c4cc(F)c(F)c(F)c4)nn3)[C@H]2OC)C2(O)CCC(F)(F)CC2)noc1C1CC1` [Example 2.44.130R.I.] were 60 nM and 160 nM.
The matching figures for `CO[C@@H]1[C@@H](n2cc(-c3cc(F)c(F)c(F)c3)nn2)[C@@H](O)[C@@H](CO)O[C@H]1S[C@H](c1nccnc1Cl)C1(O)CCC(F)(F)CC1` [Example 2.44.133R.I., (2R,3R,4S,5R,6S)-6-(((R)-(3-Chloropyrazin-2-yl)(4,4-difluoro-1-hydroxycyclohexyl)methyl)thio)-2-(hydroxymethyl)-5-methoxy-4-(4-(3,4,5-trifluorophenyl)-1H-1,2,3-triazol-1-yl)tetrahydro-2H-pyran-3-ol [1,3-di-deoxy-1-((4,4-difluoro-1-hydroxy-cyclohexan-1-yl)-(3-(-chloro)pyrazin-2-yl)methyl-(R)-thio)-2-O-methyl-3-[4-(3,4,5-trifluorophenyl)-1H-1,2,3-triazol-1-yl]-b-D-galactopyranoside]]: 40 nM and 660 nM.
Take `CO[C@@H]1[C@@H](n2cc(-c3cc(F)c(F)c(F)c3)nn2)[C@@H](O)[C@@H](CO)O[C@H]1SC(c1noc(C2CC2)c1C)C1(O)CCC(F)(F)CC1` (stereo partly drawn) [Example 2.44.145.I.]: the IC50 at human Gal-3 (hGal-3) (Table 11, read-out: IC50 (Gal-3 inhibition)) came out at 710 nM; at human Gal-1 (hGal-1) it was 1260 nM.
Turning to `Cc1nccnc1[C@@H](S[C@@H]1O[C@H](CO)[C@H](O)[C@H](n2cc(-c3cc(F)c(F)c(F)c3)nn2)[C@H]1O)C1(O)CCC(F)(F)CC1` [Example 2.44.129R., (2S,3R,4S,5R,6R)-2-(((R)-(4,4-Difluoro-1-hydroxycyclohexyl)(3-methylpyrazin-2-yl)methyl)thio)-6-(hydroxymethyl)-4-(4-(3,4,5-trifluorophenyl)-1H-1,2,3-triazol-1-yl)tetrahydro-2H-pyran-3,5-diol], the results for the IC50 on human Gal-3 (hGal-3) (setting [1]) and on human Gal-1 (hGal-1) were 30 nM and 200 nM, respectively.
Regarding `OC[C@H]1O[C@@H](S[C@H](c2ncccc2C2CC2)C2(O)CCC(F)(F)CC2)[C@H](O)[C@@H](n2cc(-c3cc(F)c(F)c(F)c3)nn2)[C@H]1O` [Example 2.44.134R., (2S,3R,4S,5R,6R)-2-(((R)-(3-Cyclopropylpyridin-2-yl)(4,4-difluoro-1-hydroxycyclohexyl)methyl)thio)-6-(hydroxymethyl)-4-(4-(3,4,5-trifluorophenyl)-1H-1,2,3-triazol-1-yl)tetrahydro-2H-pyran-3,5-diol], the figures for the IC50 on human Gal-3 (hGal-3) (setting [1]) and on human Gal-1 (hGal-1) were 10 nM and 50 nM, respectively.
Taken in the same sequence, the figures for `Cc1cscc1C(S[C@@H]1O[C@H](CO)[C@H](O)[C@H](n2cc(-c3cc(F)c(F)c(F)c3)nn2)[C@H]1O)C(C)(C)O` (stereo partly drawn) [Example 2.31.124., (2S,3R,4S,5R,6R)-2-((2-Hydroxy-2-methyl-1-(4-methylthiophen-3-yl)propyl)thio)-6-(hydroxymethyl)-4-(4-(3,4,5-trifluorophenyl)-1H-1,2,3-triazol-1-yl)tetrahydro-2H-pyran-3,5-diol] were 500 nM and 5150 nM.
In the case of `CO[C@@H]1[C@@H](n2cc(-c3cc(F)c(Cl)c(F)c3)nn2)[C@@H](O)[C@@H](CO)O[C@H]1SC(c1ncccc1C)C1(O)CCC(F)(F)CC1` (stereo partly drawn) [Example 11.44.126.I., (2R,3R,4S,5R,6S)-4-(4-(4-Chloro-3,5-difluorophenyl)-1H-1,2,3-triazol-1-yl)-6-(((4,4-difluoro-1-hydroxycyclohexyl)(3-methylpyridin-2-yl)methyl)thio)-2-(hydroxymethyl)-5-methoxytetrahydro-2H-pyran-3-ol], the IC50 amounted to 90 nM on human Gal-3 (hGal-3) (Table 14, read-out: IC50 (Gal-3 inhibition)) and 2430 nM at human Gal-1 (hGal-1).
For `Cc1ccccc1C(S[C@@H]1O[C@H](CO)[C@H](O)[C@H](n2cc(-c3cc(F)c(F)c(F)c3)nn2)[C@H]1O)C1(O)CCN(C)CC1` (stereo partly drawn) [Example 2.40.102., (2S,3R,4S,5R,6R)-2-(((4-Hydroxy-1-methylpiperidin-4-yl)(o-tolyl)methyl)thio)-6-(hydroxymethyl)-4-(4-(3,4,5-trifluorophenyl)-1H-1,2,3-triazol-1-yl)tetrahydro-2H-pyran-3,5-diol], the IC50 at human Gal-3 (hGal-3) (setting [2]) was determined as 90 nM; at human Gal-1 (hGal-1), 730 nM.
Taken in the same sequence, the figures for `CN1CCC(O)([C@H](S[C@@H]2O[C@H](CO)[C@H](O)[C@H](n3cc(-c4cc(F)c(F)c(F)c4)nn3)[C@H]2O)c2ccccc2C(F)(F)F)CC1` [Example 2.40.112R., (2S,3R,4S,5R,6R)-2-(((R)-(4-Hydroxy-1-methylpiperidin-4-yl)(2-(trifluoromethyl)phenyl)methyl)thio)-6-(hydroxymethyl)-4-(4-(3,4,5-trifluorophenyl)-1H-1,2,3-triazol-1-yl)tetrahydro-2H-pyran-3,5-diol] were 60 nM and 150 nM.
Regarding `Cc1ccccc1C(S[C@@H]1O[C@H](CO)[C@H](O)[C@H](n2cc(-c3cc(F)c(F)c(F)c3)nn2)[C@H]1O)C1(O)CCC1` (stereo partly drawn) [Example 2.34.102., (2S,3R,4S,5R,6R)-2-(((1-Hydroxycyclobutyl)(o-tolyl)methyl)thio)-6-(hydroxymethyl)-4-(4-(3,4,5-trifluorophenyl)-1H-1,2,3-triazol-1-yl)tetrahydro-2H-pyran-3,5-diol], the results for the IC50 on human Gal-3 (hGal-3) (setting [2]) and at human Gal-1 (hGal-1) were 1000 nM and 11000 nM, respectively.
In the case of “(2S,3R,4S,5R,6R)-2-(((R)-(4-Hydroxy-2,2,6,6-tetramethyltetrahydro-2H-pyran-4-yl)(2-(trifluoromethyl)phenyl)methyl)thio)-6-(hydroxymethyl)-4-(4-(3,4,5-trifluorophenyl)-1H-1,2,3-triazol-1-yl)tetrahydro-2H-pyran-3,5-diol [Example 2.42.102R.]”, the half-inhibitory concentration (IC50) on human Gal-3 (hGal-3) (setting [2]) stood at 90 nM; on human Gal-1 (hGal-1), 6400 nM.
Consider “(2R,3R,4S,5R,6S)-6-(((R)-(5-Cyclopropyl-3-methylisoxazol-4-yl)(1-hydroxycyclohexyl)methyl)thio)-2-(hydroxymethyl)-5-methoxy-4-(4-(3,4,5-trifluorophenyl)-1H-1,2,3-triazol-1-yl)tetrahydro-2H-pyran-3-ol [Example 2.39.128R.I.]”, for which the IC50 was 300 nM at human Gal-3 (hGal-3) (setting [3]) and 2360 nM at human Gal-1 (hGal-1).
Consider “(2S,3R,4S,5R,6R)-2-(((S)-((R)-4-Hydroxy-2,2-dimethyltetrahydro-2H-pyran-4-yl)(2-(trifluoromethyl)phenyl)methyl)thio)-6-(hydroxymethyl)-4-(4-(3,4,5-trifluorophenyl)-1H-1,2,3-triazol-1-yl)tetrahydro-2H-pyran-3,5-diol [Example 2.43.102SR.]”, for which the IC50 on human Gal-3 (hGal-3) (setting [2]) was 3900 nM; at human Gal-1 (hGal-1) it was 55000 nM.
As to `CC(C)(O)[C@@H](S[C@@H]1O[C@H](CO)[C@H](O)[C@H](n2cc(-c3cc(F)c(F)c(F)c3)nn2)[C@H]1O)c1ccccc1C(F)(F)F` [Example 2.31.112S., (2S,3R,4S,5R,6R)-2-(((S)-2-Hydroxy-2-methyl-1-(2-(trifluoromethyl)phenyl)propyl)thio)-6-(hydroxymethyl)-4-(4-(3,4,5-trifluorophenyl)-1H-1,2,3-triazol-1-yl)tetrahydro-2H-pyran-3,5-diol], the IC50 at human Gal-3 (hGal-3) (setting [1]) is 7070 nM; at human Gal-1 (hGal-1) it was 26400 nM.
